Test results as given in ChEMBL document CHEMBL1159292, “New antifungal bithienylacetylenes from Blumea obliqua” (1995).
Converted amounts (≈) assume the structure as drawn. The source made the active and inactive calls. The rule behind the calls is not given here.

Legend:
Pleurotus ostreatus = assay: Antifungal activity against Pleurotus ostreatus after 7 days by tube dilution method; format: functional; conditions: 168 h
Epidermophyton floccosum = assay: Antifungal activity against Epidermophyton floccosum after 7 days by tube dilution method; format: functional; conditions: 168 h
Shigella boydii = assay: Antibacterial activity against Shigella boydii by agar well diffusion method; format: functional, organism-based
Enterococcus faecalis = assay: Antibacterial activity against Streptococcus faecalis by agar well diffusion method; format: functional, organism-based
Escherichia coli = assay: Antibacterial activity against Escherichia coli by agar well diffusion method; format: functional, organism-based
Staphylococcus aureus = assay: Antibacterial activity against Staphylococcus aureus by agar well diffusion method; format: functional, organism-based
[1] = tested on: Corynebacterium diphtheriae; assay: Antibacterial activity against Corynebacterium diphtheriae by agar well diffusion method; format: functional, organism-based
[2] = tested on: Salmonella enterica subsp. enterica serovar Typhi str. CT18; assay: Antibacterial activity against Salmonella typhi by agar well diffusion method; format: functional, organism-based

SMILES	MIC (Pleurotus ostreatus)	MIC (Epidermophyton floccosum)	Activity (Shigella boydii)	Activity (Enterococcus faecalis)	Activity (Escherichia coli)	Activity (Staphylococcus aureus)	Activity [1]	Activity [2]
COC1=CC(=O)C[C@@H](C)[C@]12Oc1c(Cl)c(OC)cc(OC)c1C2=O [GRISEOFULVIN]	250 µg/mL (≈ 709 µM)	250 µg/mL (≈ 709 µM)	–	–	–	–	–	–
C=CC#Cc1ccc(-c2ccc(COC(=O)CC(C)C)s2)s1	200 µg/mL (≈ 605 µM)	200 µg/mL (≈ 605 µM)	–	–	–	–	–	–
Cc1ccc(-c2ccc(C#CCCOC(=O)CC(C)C)s2)s1	200 µg/mL (≈ 602 µM)	200 µg/mL (≈ 602 µM)	Active	Active	Active	Active	Active	Active
